Molecules are shown by their SMILES.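 Test compounds were applied to cells in 96-well plates for 48 hours at 5 doses. At the GI50, growth is halved.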 Calls of active or inactive are those of the source. Cut-off read from the data, not from the text of the source: active = GI50 up to about 1.1 µM and inactive = higher.

Among the test systems are A498; CCRF-CEM; HCT-116; HOP-62; HT-29; IGROV-1; LOX IMVI; M14; NCI/ADR-RES; OVCAR-3; OVCAR-5; RXF 393; SF-295; SK-OV-3; SN12C; SNB-75; SR; SW-620; T47D; U-251.
Assay in all cases: DTP human tumour cell line panel, 48 h

In the case of `CN(C)c1n/c(=N/Cc2ccncc2)ss1`, the GI50 with A498 is > 100 µM (inactive); in the experiment on CCRF-CEM, 13.6 µM (inactive); with HCT-116 it was 20.5 µM (inactive); in the experiment on HOP-62, > 10 µM (inactive); with HT-29, 19.3 µM (inactive); in the experiment on IGROV-1, > 75.5 µM (inactive). The GI50 is 16.4 µM (inactive) with LOX IMVI; 16.8 µM (inactive) in the experiment with M14; > 72.8 µM (inactive) in the experiment on NCI/ADR-RES; > 48.6 µM (inactive) in the experiment on OVCAR-3; 22.6 µM (inactive) in the experiment on OVCAR-5; 31.8 µM (inactive) in the experiment on RXF 393. The GI50 was > 90.8 µM (inactive) in the experiment on SF-295; > 40 µM (inactive) with SK-OV-3; 19.6 µM (inactive) in the experiment with SN12C; 18.4 µM (inactive) with SNB-75; 6.4 µM (inactive) with SR; 23.9 µM (inactive) in the experiment on SW-620. For the same compound, the values for the GI50 in the experiment on T47D and with U-251 were 10.7 µM (inactive) and 17.9 µM (inactive), respectively.

In the case of `C/C(=N\NC(=S)NCCCNC(=S)N/N=C(\C)c1ccccn1)c1ccccn1`, the GI50 in the experiment with A498 was 4.97 µM (inactive); in the experiment on CCRF-CEM it was 1.16 µM (inactive); with HCT-116 it was 2.88 µM (inactive); in the experiment with HOP-62, 1.94 µM (inactive); in the experiment with HT-29 it was 2 µM (inactive); in the experiment on IGROV-1, 3.9 µM (inactive). The GI50 is 2.81 µM (inactive) in the experiment with LOX IMVI; 0.733 µM (active) in the experiment with M14; 2.22 µM (inactive) in the experiment on NCI/ADR-RES; 2.95 µM (inactive) with OVCAR-3; 7.94 µM (inactive) with OVCAR-5; 3.03 µM (inactive) in the experiment with RXF 393. In addition, the GI50 with SF-295 is 5.27 µM (inactive); in the experiment on SK-OV-3, 2.01 µM (inactive); in the experiment with SN12C it was 1.98 µM (inactive); with SNB-75, 2.95 µM (inactive); in the experiment with SR it was 0.968 µM (active); in the experiment with SW-620, 22.5 µM (inactive). Also, the GI50 in the experiment with T47D was 3.51 µM (inactive); with U-251, 2.77 µM (inactive).

For `COC1/C=C\C=C(/C)C(=O)NC2=CC(=O)C(N)=C(CC(C)CC(OC)C(O)C(C)C=C(C)C1OC(N)=O)C2=O` (stereo not given), the GI50 with A498 is 19.1 µM (inactive); in the experiment on CCRF-CEM, 0.178 µM (active); with HCT-116, 0.0233 µM (active); in the experiment with HOP-62, < 0.0199 µM (active); with HT-29, < 0.01 µM (active); in the experiment on IGROV-1 it was 0.0318 µM (active). Further, the GI50 in the experiment with LOX IMVI was 0.0193 µM (active); in the experiment on M14, 0.0204 µM (active); in the experiment on NCI/ADR-RES, 28.7 µM (inactive); in the experiment on OVCAR-3, 0.0681 µM (active); in the experiment on OVCAR-5, 0.375 µM (active); with RXF 393, 2.93 µM (inactive). Also, the GI50 with SF-295 is 0.0295 µM (active); with SK-OV-3 it was < 0.0123 µM (active); in the experiment on SN12C, 0.017 µM (active); with SNB-75, < 0.0137 µM (active); with SR, 0.0161 µM (active); with SW-620, < 0.0133 µM (active). Further, the GI50 in the experiment on T47D was 0.653 µM (active); with U-251 it was < 0.01 µM (active).

`C(=N\c1ccc(-c2nc3ccccc3s2)cc1)/c1ccc[nH]1`: the GI50 with A498 was 15.7 µM (inactive); in the experiment with CCRF-CEM, 21.7 µM (inactive); in the experiment with HCT-116, 16.1 µM (inactive); in the experiment on HOP-62 it was 12.5 µM (inactive); with HT-29, 19.8 µM (inactive); in the experiment on IGROV-1, 15.1 µM (inactive). In addition, the GI50 in the experiment with LOX IMVI was 17.3 µM (inactive); with M14, 17.9 µM (inactive); in the experiment with NCI/ADR-RES, 13.3 µM (inactive); in the experiment on OVCAR-3 it was 14.7 µM (inactive); in the experiment on OVCAR-5, 22 µM (inactive); in the experiment on RXF 393, 16 µM (inactive). Further, the GI50 in the experiment with SF-295 was 13.3 µM (inactive); in the experiment on SK-OV-3 it was 17.7 µM (inactive); in the experiment on SN12C, 19.5 µM (inactive); with SNB-75, 22.2 µM (inactive); in the experiment on SR, 21.4 µM (inactive); in the experiment on SW-620, 22.4 µM (inactive). The GI50 is 13.4 µM (inactive) in the experiment on T47D and 14.4 µM (inactive) in the experiment on U-251.

On to `CN(C)/N=C1/CCC(C(F)(F)F)(C(F)(F)F)O1`, for which the GI50 with A498 was 21.4 µM (inactive); in the experiment on CCRF-CEM, 30.2 µM (inactive); with HCT-116 it was 29.7 µM (inactive); with HOP-62 it was 31.4 µM (inactive); in the experiment on HT-29, 41.8 µM (inactive); in the experiment on IGROV-1, 31.2 µM (inactive). The GI50 is 33.6 µM (inactive) with LOX IMVI; 25.1 µM (inactive) in the experiment with M14; 26.6 µM (inactive) with NCI/ADR-RES; 18.5 µM (inactive) with OVCAR-3; 58.1 µM (inactive) with OVCAR-5; 32.6 µM (inactive) in the experiment on RXF 393. Further, the GI50 is 39.5 µM (inactive) in the experiment on SF-295; 38.3 µM (inactive) in the experiment with SK-OV-3; 27.8 µM (inactive) with SN12C; 26.3 µM (inactive) in the experiment on SNB-75; 17.6 µM (inactive) in the experiment on SR; 40.6 µM (inactive) in the experiment on SW-620. In addition, the GI50 is 33.2 µM (inactive) with T47D and 39 µM (inactive) in the experiment with U-251.

For `CC(C)(C)OC(=O)N(O)CCCn1cnc2c(NC3CC3)ncnc21`, the GI50 in the experiment on A498 was > 100 µM (inactive); in the experiment with CCRF-CEM, > 100 µM (inactive); in the experiment with HCT-116, > 100 µM (inactive); with HOP-62, > 100 µM (inactive); in the experiment on HT-29 it was > 100 µM (inactive); in the experiment on IGROV-1 it was 75.3 µM (inactive). The GI50 in the experiment on LOX IMVI, with M14, in the experiment on NCI/ADR-RES, in the experiment with OVCAR-3, with OVCAR-5 and in the experiment on RXF 393 was > 100 µM (inactive) each time. For the same compound, the GI50 in the experiment on SF-295 was > 100 µM (inactive); in the experiment on SK-OV-3, > 100 µM (inactive); in the experiment on SN12C, > 100 µM (inactive); in the experiment on SNB-75, 35.1 µM (inactive); in the experiment on SR it was > 100 µM (inactive); with SW-620, > 100 µM (inactive). Moreover, the GI50 in the experiment with T47D and in the experiment on U-251 was > 100 µM (inactive) throughout.

As to `CC1(c2ccc(Cl)cc2)CC(c2ccc(Cl)cc2)=C(C#N)C(=C(C#N)C#N)N1` (stereo not given), the GI50 with A498 was 18.5 µM (inactive); in the experiment on CCRF-CEM it was 3.11 µM (inactive); in the experiment on HCT-116, 14.6 µM (inactive); with HOP-62, 7.36 µM (inactive); in the experiment with HT-29 it was 12.8 µM (inactive); in the experiment on IGROV-1 it was 14.7 µM (inactive). Further, the GI50 in the experiment with LOX IMVI is 17.3 µM (inactive); in the experiment on M14, 18.5 µM (inactive); in the experiment on NCI/ADR-RES, 19.3 µM (inactive); in the experiment with OVCAR-3 it was 11.3 µM (inactive); in the experiment with OVCAR-5 it was 25.8 µM (inactive); in the experiment with RXF 393, 13.1 µM (inactive). Besides, the GI50 in the experiment with SF-295 was 14.7 µM (inactive); in the experiment with SK-OV-3, 16.9 µM (inactive); with SN12C, 15 µM (inactive); in the experiment on SNB-75, 19.4 µM (inactive); with SR, 11.5 µM (inactive); with SW-620, 12 µM (inactive). The results for the GI50 in the experiment on T47D and in the experiment with U-251 were 12.6 µM (inactive) and 12.2 µM (inactive), respectively.

Consider `c1ccc(CN2CCC(CNc3ncnc4ccccc34)C2)cc1` (stereo not given), for which the GI50 is 41.3 µM (inactive) with A498; 41 µM (inactive) with CCRF-CEM; 40.5 µM (inactive) in the experiment on HCT-116; > 100 µM (inactive) in the experiment on HOP-62; 33.1 µM (inactive) with HT-29; > 100 µM (inactive) with IGROV-1. Besides, the GI50 in the experiment on LOX IMVI is 45.3 µM (inactive); with M14, 17.3 µM (inactive); in the experiment on NCI/ADR-RES, 61.9 µM (inactive); in the experiment with OVCAR-3, > 100 µM (inactive); with OVCAR-5, > 100 µM (inactive); in the experiment on RXF 393, > 100 µM (inactive). The GI50 with SF-295 was 51.4 µM (inactive); with SK-OV-3, > 100 µM (inactive); in the experiment on SN12C, 98.6 µM (inactive); in the experiment on SNB-75, > 100 µM (inactive); with SR, 17.2 µM (inactive); in the experiment with SW-620, > 100 µM (inactive). In addition, the GI50 in the experiment with T47D was 93.5 µM (inactive); in the experiment on U-251, 76.9 µM (inactive).

On to `CC[C@@]1(O)C(=O)OCc2c1cc1n(c2=O)Cc2c-1nc1ccccc1c2/C=N/NC(=O)c1ccc(N)cc1`, for which the GI50 in the experiment on A498 was 0.33 µM (active); with CCRF-CEM, < 0.01 µM (active); in the experiment with HCT-116, 0.1 µM (active); in the experiment with HOP-62, 0.0333 µM (active); in the experiment on HT-29, 4.68 µM (inactive); in the experiment on IGROV-1 it was 0.279 µM (active). The GI50 was 0.0273 µM (active) in the experiment on LOX IMVI; 0.0585 µM (active) in the experiment on M14; 0.392 µM (active) in the experiment with NCI/ADR-RES; 0.714 µM (active) with OVCAR-3; 5.22 µM (inactive) in the experiment with OVCAR-5; < 0.0322 µM (active) in the experiment with RXF 393. Moreover, the GI50 with SF-295 is 0.123 µM (active); with SK-OV-3, 0.158 µM (active); with SN12C it was 0.0543 µM (active); in the experiment on SNB-75 it was 0.0489 µM (active); with SR, < 0.01 µM (active); in the experiment on SW-620, 0.0796 µM (active). Besides, the GI50 in the experiment with T47D was < 0.01 µM (active); in the experiment with U-251, < 0.0141 µM (active).

Consider `O=C(OCc1ccccc1)N(CCCCN(CCCNCc1ccccc1)C(=O)OCc1ccccc1)CCCNCc1ccccc1`, for which the GI50 in the experiment with A498 was 0.889 µM (active); in the experiment with CCRF-CEM, 0.242 µM (active); with HCT-116, 0.249 µM (active); in the experiment with HOP-62, 1.6 µM (inactive); in the experiment on HT-29, 0.24 µM (active); in the experiment with IGROV-1, 0.883 µM (active). In addition, the GI50 in the experiment with LOX IMVI was 0.22 µM (active); with M14, 0.252 µM (active); with NCI/ADR-RES, 1.71 µM (inactive); with OVCAR-3 it was 1.39 µM (inactive); in the experiment on OVCAR-5, 1.63 µM (inactive); with RXF 393 it was 1.63 µM (inactive). In addition, the GI50 was 12.2 µM (inactive) in the experiment with SF-295; 14.5 µM (inactive) in the experiment on SK-OV-3; 0.834 µM (active) with SN12C; 1.43 µM (inactive) in the experiment with SNB-75; 0.191 µM (active) in the experiment with SR; 0.221 µM (active) with SW-620. For the same compound, the GI50 was 1.98 µM (inactive) in the experiment on T47D and 0.258 µM (active) in the experiment with U-251.

The GI50 is the concentration at which growth is held to half of that of the control.

These data come from ChEMBL document CHEMBL1201862, “PubChem BioAssay data set” (2004).
